Series [1] deals with mixed MCLs that only express 1% of the activating reductase E. coli NfsB. The note with it: 1% NfsB-expressing cells; Singleton et al., 2007; cited from earlier work.
Series [2] concerns wild-type HCT116 colon cancer cells. Briefly: Anti-proliferative IC50 assay (SRB), wild-type HCT116. It is filed as cell-based, human. As to conditions: 4 hour exposure, 5 days growth; read-out: HCT116-WT IC50. The source says: (§1) The cellular cytotoxicity of compounds of the invention resulting from AKR1C3-dependent metabolism of the compounds can readily be observed in anti-proliferative IC50 testing in isogenic cell lines that have been engineered to over-express human AKR1C3, relative to their wild-type counterparts that have been selected for their comparatively low levels of endogenous AKR1C3 expression (by Western blot analysis). The direct role of AKR1C3 in metabolism and cytotoxicity of the compounds is further supported for selected examples by repeat anti-proliferative experiments in the presence of a potent and selective small molecule inhibitor of AKR1C3, SN34037 (Flanagan et al., Bioorganic & Medicinal Chemistry (2014), 22(3), 967-977).
(§2) Four hundred cells were seeded in a volume of 100 μL in each well of a 96-well plate. The cells were left in a humidified incubator (37° C., 5% CO2) for 2 hours in order to enable attachment to the surface of the wells prior to compound addition. All compounds were prepared as stocks in DMSO and stored at −80° C. Frozen stocks of compounds were thawed immediately prior to addition to cells. Working solutions of each compound were made in α-MEM+5% FBS (v/v) at 3 times the required final concentration for the top well. The final concentration of DMSO in the α-MEM solution was ensured to not exceed 1% of the total volume. 50 μL of the working solution was added to the top wells (in duplicates) and gently mixed. The solubility of some compounds precluded the working solution in α-MEM to be 3 times the desired top well concentration. […] A 3-fold serial dilution was carried out along the plate starting from the top well. The first column of wells on the plate served as blanks (containing α-MEM+FBS) and the second column served as control wells (containing cells with no compound added). Following compound addition, the plates were incubated for 4 hours in a humidified incubator (37° C., 5% CO2).
(§3) Following the 4 hour compound exposure, the 96-well plates were washed three times by aspirating media with an Immuno Washer (Nunc) and each well replaced with 150 μL of α-MEM+5% (v/v) FBS+1% (v/v) P/S. The plates were left in a humidified incubator (37° C., 5% CO2) for 5 days to enable cell growth. The cells in 96-well plates were fixed 5 days after compound exposure by adding 50 μL of a 40% (w/v) trichloroacetic acid (TCA) solution so as to obtain a final TCA concentration of 10% in each well. The plates were left in the refrigerator (4° C.) for 1 hour and subsequently rinsed 3 times in tap water. Any excess water was left to drain and the cells were stained with 50 μL of 0.4% (w/v) sulforhodamine B (SRB). The plates with the SRB stain were left in the dark for 30 minutes. Excess stain was removed from the wells by rinsing the plates 4 times in water containing 1% (v/v) acetic acid. The stain was solubilised by adding 100 μL of 10 mM unbuffered Tris (pH 10.5) to each well and the plates were left in a shaker in a dark environment at room temperature for at least 1 hour. The absorbance values of the wells were determined by an ELx 808 Absorbance Microplate Reader (Bio-Tek Instruments, Winooski, Vt., USA), with the wavelength of the measurement filter set at 490 nm and a reference filter set at 450 nm. The absorbance of the reference filter was subtracted from the measurement filter to obtain a final absorbance of λ490-450 nm. The absorbance data was analysed and IC50 values determined by the KC4 microplate data analysis software (KC4™ V3.4, Bio-Tek).
(§4) Anti-proliferative IC50 assays were repeated as described above including the addition of 3 μM SN34037, a selective and potent small molecule inhibitor of AKR1C3.

The test system of series [3] is HCT116 colon cancer cells engineered to over-express AKR1C3. In words: Anti-proliferative IC50 assay (SRB), HCT116 over-expressing AKR1C3. It counts as cell-based, human.
Source text: as §1, §2, §3, §4

A further series deals with AKR1C3 mixed MCLs. As to conditions: Silva, MSc Thesis; cited from earlier work.
For series [4], the system named is SNU-398^AKR1C3 (AKR1C3 over-expressing) hepatocellular carcinoma xenografts. In words: Tumour growth delay, SNU-398 AKR1C3 over-expressing xenografts. As to conditions: q4dx4 intraperitoneal, 50 mg/kg. It is filed as in vivo, NIH-III mice. The text has this: (§5) Specific pathogen-free female homozygous nude NIH-III (NIH-Lyst^bg Foxn1^nu Btk^xid) mice were bred by the Vernon Jansen Unit (shared vivarium, University of Auckland). Animals were housed in Techniplast microisolator cages and provided with a standard twelve hour day-night light schedule. Animals received standard rodent diet (Harlan Teklad diet 2018i) and water ad libitum. All animal studies were approved by the University of Auckland Animal Ethics Committee.
(§6) Animals weighed 18-25 g at the time of tumour inoculation. Tumours were grown subcutaneously on the right flank of mice by inoculating cells grown in tissue culture (1×10^7 cells in 100 uL serum free α-MEM). Tumour sizes were monitored three times weekly using electronic callipers and treatments were initiated once tumour diameter reached ≥7 mm.
(§7) Tumour bearing mice were randomised into the appropriate treatment groups and tumour size and body weight recorded. Test compounds were formulated on the day of the experiment and kept in foil-wrapped tubes out of direct fluorescent light. […] Mice were treated with a single (or q4dx3 or q4dx4 or q4dx6) dose of a compound of the invention by intraperitoneal injection and thereafter tumour size and body weight was monitored every second day. Tumour volume was calculated as […] (l×w×w)/6, where l is the major axis and w is the perpendicular minor axis. […]

Series [5] in a line: Solubility by HPLC in water and lactate buffer. It is filed as physicochemical. The note with it: water, room temperature; read-out: Solubility, Water, RT. The procedure:
(§8) The solubility and stability of compound 641 was studied by HPLC in lactate buffer (pH 4) and water as the free base and the mesylate salt (641.Ms) at 0° C. and room temperature (RT). […] However, this was improved considerably by formulation as the mesylate salt, producing a solubility of greater than 100 mmol/L in lactate buffer and greater than 70 mmol/L in water. […] This stability was improved considerably by reducing the temperature of the solution to 0° C.

Series [6] relates to H460 lung cancer xenografts. In words: Tumour growth delay, H460 xenografts. It counts as in vivo, NIH-III mice.
Source text: as §5, §6
Tumour bearing mice were randomised into the appropriate treatment groups and tumour size and body weight recorded. Test compounds were formulated on the day of the experiment and kept in foil-wrapped tubes out of direct fluorescent light. If recruitment of animals occurred over multiple days, the drug stocks were aliquoted into tubes and frozen once at −80° C. until required. Mice were treated with a single (or q4dx3 or q4dx4 or q4dx6) dose of a compound of the invention by intraperitoneal injection and thereafter tumour size and body weight was monitored every second day. Tumour volume was calculated as […] (l×w×w)/6, where l is the major axis and w is the perpendicular minor axis. Animals were culled when they had reached the appropriate survival endpoint or when body weight loss exceeded 20% of the pre-treatment value.

For series [7], the system named is SW780 bladder carcinoma xenografts. In words: Tumour growth delay, SW780 xenografts. It counts as in vivo, NIH-III mice. The note with it: q4dx6 intraperitoneal, 50 mg/kg.
Source text: as §5, §6, §7

The nature of series [8]: Stability in solution by HPLC in water and lactate buffer. It counts as physicochemical. As to the method: as §8
For series [9], the system named is PLC/PRF/5 hepatocellular carcinoma xenografts. Briefly: Tumour growth delay, PLC/PRF/5 xenografts. It counts as in vivo, NIH-III mice. As to conditions: q4dx4 intraperitoneal, 114 mg/kg.
Source text: as §5, §6, §7

For series [10], the system named is SNU-398^WT (wild type) hepatocellular carcinoma xenografts. Briefly: Tumour growth delay, SNU-398 wild type xenografts. It counts as in vivo, NIH-III mice. The note with it: q4dx4 intraperitoneal, 50 mg/kg; negligible AKR1C3 expression; FIG. 7.
Source text: as §5, §6, §7

pIC50: −log10 of the molar value. Entries after “also recorded” stand apart in the source; their conditions may differ.

As a reminder, the pIC50 is the negative decadic logarithm of the IC50, by convention in mol/L. In the case of `O=C(NCCO)c1cc([N+](=O)[O-])cc([N+](=O)[O-])c1N(CCBr)CCBr` [SN27686, reference compound], in series [1], the bystander effect is given as 48%. Moreover, the pIC50 in series [2] is 4.37; in series [3] (4 hour exposure, 5 days growth, read-out: HCT116-AKR1C3 IC50), 5.84. Besides, the “IC50 Ratio WT:AKR1C3” value in series [3] (HCT116-WT vs HCT116-AKR1C3) is 29. In addition, the “BEE reported in AKR1C3 mixed MCLs” value with AKR1C3 mixed MCLs was 57.6%.
What is called solubility is how much of the substance goes into solution per volume. Take `CN1CCN(S(=O)(=O)c2cc([N+](=O)[O-])ccc2N(CCOS(C)(=O)=O)CCOS(C)(=O)=O)CC1` [Compound 641.Ms, 4-((2-(bis(2-((methylsulfonyl)oxy)ethyl)amino)-5-nitrophenyl)sulfonyl)-1-methylpiperazin-1-ium methanesulfonate]: the “anti-tumour activity (mean tumour volume)” value is “significant anti-tumour activity” in [4] (FIG. 7), “significant anti-tumour activity” in series [7] (FIG. 6), “significant anti-tumour activity” in series [9] (FIG. 5) and “inactive” in series [10]. For the same compound, the tolerability of schedule result in [4] (mice bearing SNU-398^WT or SNU-398^AKR1C3 xenografts), in [7] and in series [9] was “well-tolerated” throughout. Also, in series [5], the solubility is over 70 mM. The “anti-tumour efficacy (mean tumour volume)” value was “significant anti-tumour efficacy” in series [6] (q4dx4 intraperitoneal, 10, 25, 50, 100 and 150 mg/kg, FIG. 4); “significant anti-tumour efficacy” in [6] (single dose intraperitoneal, 237, 422, 562, 750 and 1000 μmol/kg, FIG. 3). Further, the “mean percentage change in body weight” value in [6] (q4dx4 intraperitoneal, 10-150 mg/kg, all dose cohorts) is on record as at least −10%. Further, the tolerability result in series [6] (q4dx4 intraperitoneal, 10-150 mg/kg, methanesulfonate) is reported as “well-tolerated; also recorded: well tolerated”; in series [6] (single dose intraperitoneal, 237-1000 μmol/kg), “well-tolerated”. Moreover, the “Stability (% Parent after 24 hours), Lactate Buffer, 0° C.” value in [8] (lactate buffer (pH 4), 0° C.) is reported as 91.7%. Also, the “Stability (% Parent after 24 hours), Lactate Buffer, RT” value in series [8] (lactate buffer (pH 4), room temperature, methanesulfonate) came out at 51.9%. For the same compound, in series [8] (water, room temperature), the “Stability (% Parent after 24 hours), Water, RT” value was determined as 53.8%.

(Values after patent US11661404B2, “Prodrug compounds activated by AKR1C3 and their use for treating hyperproliferative disorders” (priority 2018, dated 2023).)
